Read-outs that look alike come from different tables or passages of the source.
Columns and labels:
Assay in all cases: cells
Format in all cases: cell-based, human
HBD1 = conditions: for fold induction at 10000 µM: Homo sapiens, Keratinocyte; for relative gene expression level HBD1: primary keratinocytes, 10000 µM
Description: (§1) Primary human epidermal keratinocytes were prepared from neonatal foreskin as described previously (Grether-Beck et al, 1996, 2000, 2003, 2005, 2008) and maintained in culture under serum free conditions using a defined keratinocyte growth medium Keratinocyte SFM (Invitrogen, Heidelberg, Germany) supplemented with bovine pituitary extract (Invitrogen, Heidelberg, Germany) and recombinant epidermal growth factor (Invitrogen, Heidelberg, Germany). Cells were propagated up to passage 2 or 3 at 37°C and 5 % CO2 (Grether-Beck et al, 1996, 2000, 2003, 2005, 2008). For induction of differentiation NHEKs were seeded in 6well plates and grown up to confluence.
(§2) For assessment of gene expression total RNA was extracted from frozen biopsies (Ø 4 mm) and gene expression measured by semiquantitative RT-PCR. For isolation of RNA from frozen skin biopsies, 600 µl lysis buffer from PeqGold Total RNA Kit (PeqLab, Erlangen, Germany) were added and the samples were disrupted in a MixerMill MM300 (Retsch, Haan, Germany) three times for 3 min with 30 Hz. 50 ng total RNA were used for cDNA synthesis. PCR reactions were performed in an Opticon 1 (MJ Research, Waltham, MA, USA) using Sybr QPCR Supermix w. Rox (Invitrogen, Karlsruhe, Germany). PCR conditions were as follows: activation of hot start taq polymerase 94° C 15 minutes; denaturation 95° C, 20 seconds; annealing, 55° C, 20 seconds; extension, 72° C 30 seconds. Each sample was subjected to PCR in double using the appropriate primer pairs for 45-50 cycles. For comparison of relative expression in real time PCR control cells and treated cells the 2 (-della delta C(T)) method was used (Livak KJ, and Schmittgen TD. Analysis of relative gene expression data using real time quantitative PCR and the 2 (-delta delta C(T)) method. Methods 2001: 25: 402 - 408). mRNA expression of the genes of interest was shown as fold induction as compared to untreated skin samples of the same volunteer. Table 1: Primer pairs for real time PCR
(§3) For determination of relative gene expression in real time PCT the 2(-delta delta C(T))-method was used as described in Livak and Schmittgen (2001) "Analysis of relative gene expression data using real time quantitative PCR and the 2 (-delta delta C(T))-method" Methods 25: 401-408. For statistical analysis, the experimental data were analyzed using the Wilcoxon signed-rank test.
(§4) HNKs were stimulated with 10mM urea for the indicated time points (3h, 6h, 12h, 24h) and processed for RNA analysis (1). Data are the result of a set of three samples for the control and two samples in parallel for the urea stimulated ones. Table 2 indicates the relative gene expression levels after stimulation with urea as compared to untreated contol cells. […] Table 3 indicates the data depicted in Figure 2. [formula] Table 2: Expression of antimicrobial peptides in human keratinocytes after stimulation with urea at different time points after induction.

HBD3 = conditions: for fold induction at 10000 µM: Homo sapiens, Keratinocyte; for relative gene expression level HBD3: primary keratinocytes, 10000 µM
Description: as §1, §2, §3, §4

HBD2 = conditions: for fold induction at 10000 µM: Homo sapiens, Keratinocyte
Description: as §1, §2, §3, §4

Compound: NC(N)=O [urea]
- fold induction at 10000 µM (HBD1; 3 h, read-out: relative gene expression level HBD1, 10mM urea, 3h, compared to untreated control cells): 3.1
- fold induction at 10000 µM (HBD1; 6 h, read-out: relative gene expression level HBD1, 10mM urea, 6h, compared to untreated control cells): 1.3
- fold induction at 10000 µM (HBD1; 12 h, read-out: relative gene expression level HBD1, 10mM urea, 12h, compared to untreated control cells): 1.6
- fold induction at 10000 µM (HBD1; 24 h, read-out: relative gene expression level HBD1, 10mM urea, 24h, compared to untreated control cells): 1.6
- relative gene expression level HBD1 (HBD1; 3 h): 3.000
- relative gene expression level HBD1 (HBD1; 6 h): 1.5000
- fold induction at 10000 µM (HBD3; 3 h, read-out: relative gene expression level HBD3, 10mM urea, 3h, compared to untreated control cells): 4
- fold induction at 10000 µM (HBD3; 6 h, read-out: relative gene expression level HBD3, 10mM urea, 6h, compared to untreated control cells): 2
- fold induction at 10000 µM (HBD3; 12 h, read-out: relative gene expression level HBD3, 10mM urea, 12h, compared to untreated control cells): 1.6
- fold induction at 10000 µM (HBD3; 24 h, read-out: relative gene expression level HBD3, 10mM urea, 24h, compared to untreated control cells): 3.2
- relative gene expression level HBD3 (HBD3; 3 h): 3.7000
- relative gene expression level HBD3 (HBD3; 6 h): 1.8000
- relative gene expression level HBD3 (HBD3; 12 h): 1.7000
- relative gene expression level HBD3 (HBD3; 24 h): 3.3000
- fold induction at 10000 µM (HBD2; 3 h, read-out: relative gene expression level HBD2, 10mM urea, 3h, compared to untreated control cells): 1.8
- fold induction at 10000 µM (HBD2; 6 h, read-out: relative gene expression level HBD2, 10mM urea, 6h, compared to untreated control cells): 1.1
- fold induction at 10000 µM (HBD2; 12 h, read-out: relative gene expression level HBD2, 10mM urea, 12h, compared to untreated control cells): 1.5
- fold induction at 10000 µM (HBD2; 24 h, read-out: relative gene expression level HBD2, 10mM urea, 24h, compared to untreated control cells): 1.6
- relative gene expression level HBD2 (HBD2; primary keratinocytes, 3 h, 10000 µM): 1.7000

From EP2241312A1, “Use of compositions comprising urea for treating microbial infections” (ISDIN S.A., priority 2009, dated 2010)
